Data as given in patent US8501713B2, “Drug combinations for the treatment of duchenne muscular dystrophy” (Summit Corporation PLC, priority 2007, dated 2013).

Tested on: Utrophin A promoter linked to a luciferase reporter gene
Assay: Luciferase reporter assay (murine H2K cells)
Format: cell-based
Details: for activity at 10 µM: Mus musculus, H2K mdx, read-out: Activity
Outline: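 Compound at 10 μM final was applied for 48 hrs to plated H2K mdx myoblasts (33° C, 10% CO2, interferon-containing medium) bearing a luciferase gene under the utrophin A promoter. Luminescence from lysed cells served as read-out.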

[1] = luciferase reporter assay in murine H2K cells, classified relative to control
[2] = luciferase level relative to control, H2K/mdx/Utro A reporter cells, compound 10 μM final concentration

Row | SMILES | Activity [1] | activity at 10 µM [2] [%] | also measured
1 | Cc1ccc(-c2nc3ccccc3s2)cc1N [Example 479] | ++ (Between 201% and 300% relative to control) | – | –
2 | CC(=O)Nc1ccc(-c2nc3cc(NC(C)=O)ccc3o2)cc1 [Example 365, N-(4-(5-acetamidobenzo[d]oxazol-2-yl)phenyl)acetamide] | – | < 200 | –
3 | Cc1nc2ccc(NC(=O)Nc3ccccc3)cc2o1 [Example 466] | + (Up to 200% relative to control) | – | –
4 | CC(C)C(=O)Nc1ccc2oc(-c3ccccc3Cl)nc2c1 [Example 230, N-(2-(2-chlorophenyl)benzo[d]oxazol-5-yl)isobutyramide] | – | > 401 | –
5 | CCc1ccc(-c2nc3cc(N)ccc3o2)cc1 [Example 481] | ++ (Between 201% and 300% relative to control) | – | –
6 | Nc1ccc2sc(-c3ccc(Cl)cc3)nc2c1 [Example 276, 2-(4-chlorophenyl)benzo[d]thiazol-5-amine] | – | > 401 | –
7 | CCc1ccc2oc(-c3cc(N)ccc3O)nc2c1 [Example 551] | + (Up to 200% relative to control) | – | –
8 | Cc1ccc2nc(-c3ccc(NC(=O)C(C)C)cc3)oc2c1 [Example 564] | + (Up to 200% relative to control) | – | –
9 | Cc1ccc(-c2nc3cc(NC(=O)c4ccncc4)ccc3o2)cc1 [Example 114, N-(2-p-tolylbenzo[d]oxazol-5-yl)isonicotinamide] | – | < 200 | –
10 | Clc1ccc(-c2nc3cc4c(cc3o2)OCO4)cc1 [Example 310, 2-(4-chlorophenyl)-5,6-methylenedioxybenzoxazole] | – | 301 to 400 | –
11 | CCC(C)c1ccc2oc(-c3ccc(N)cc3)nc2c1 (stereo not drawn) [Example 609] | +++ (Between 301% and 400% relative to control) | – | –
12 | Fc1cc2nc(-c3ccc4ccccc4c3)oc2cc1F [Example 452, 5,6-Difluoro-2-(naphthalen-2-yl)benzo[d]oxazole] | – | > 401 | –
13 | CC(C)C(=O)Nc1ccc(-c2nc3c(ccc4ccccc43)o2)cc1 [Example 442, N-(4-(naphtho[1,2-d]oxazol-2-yl)phenyl)isobutyramide] | – | 301 to 400 | –
14 | CC(C)S(=O)(=O)Nc1ccc2oc(-c3ccc(Cl)cc3)nc2c1 [Example 261, N-(2-(4-chlorophenyl)benzo[d]oxazol-5-yl)propane-2-sulfonamide] | – | < 200 | –
15 | CCC(=O)Nc1ccc2oc(-c3ccc(N(CC)CC)cc3)nc2c1 [Example 75, N-(2-(4-(diethylamino)phenyl)benzo[d]oxazol-5-yl)propionamide] | – | 201 to 300 | –
16 | CCN(CC)S(=O)(=O)c1ccc2oc(-c3ccc(Cl)cc3)nc2c1 [Example 439, 2-(4′-chlorophenyl)-5-(N,N-diethylsulfonamidyl)-benzoxazole] | – | – | Activity [2]: + (Up to 200% relative to control)
17 | O=C(Nc1cccc(-c2nc3ccccc3[nH]2)c1)c1ccccc1 [Example 464] | + (Up to 200% relative to control) | – | –
18 | CC(C)NC(=O)c1ccc2oc(-c3ccc(Cl)cc3)nc2c1 [Example 263, 2-(4-chlorophenyl)-N-isopropylbenzo[d]oxazole-5-carboxamide] | – | 301 to 400 | –
19 | Cc1ccc(-c2nc3cc(NS(=O)(=O)C(C)C)ccc3o2)cc1 [Example 259, N-(2-p-tolylbenzo[d]oxazol-5-yl)propane-2-sulfonamide] | – | < 200 | –
20 | Nc1ccc2oc(-c3ccc(Cl)cc3)nc2c1 [Example 488] | ++ (Between 201% and 300% relative to control) | – | –
21 | Cc1nc(Nc2nc3ccccc3o2)nc2c1CCC2 [Example 678] | ++ (Between 201% and 300% relative to control) | – | –
22 | CC(C)C(=S)Nc1ccc2oc(-c3ccc(Cl)cc3)nc2c1 [Example 275, N-(2-(4-chlorophenyl)benzo[d]oxazol-5-yl)-2-methylpropanethioamide] | – | 201 to 300 | –
23 | CCC(=O)Nc1ccc2oc(-c3ccc(C)cc3)nc2c1 [Example 115, N-(2-p-tolylbenzo[d]oxazol-5-yl)propionamide] | – | > 401 | –
24 | Clc1ccc2oc(-c3ccccc3)nc2c1 [Example 111, 5-chloro-2-phenylbenzo[d]oxazole] | – | 201 to 300 | –
